Assay results published in PubChem BioAssay AID248 (DTP/NCI, 2004).
Inconclusive results and toxic doses are left out. Cut-off read from the data, not from the text of the source: active = T/C of 150% or more; inactive = T/C below 125%. Square brackets hold non-standard residues; d marks the D form. Peptide text beside a SMILES is read from it. * marks the point of attachment. Tos = Cc1ccc(S(=O)(=O)*)cc1; ΔPro = O=C(O)[CH]1C=CCN1

Test system: L1210 leukemia ip in BDF1 mice, survival T/C
Assay: NCI In Vivo Anticancer Drug Screen. Data for tumor model L1210 Leukemia (intraperitoneal) in B6D2F1 (BDF1) mice
Conditions: higher = longer survival
How it was run: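 Ratio derived from survival: compound-dosed mice over vehicle-dosed mice, all bearing a transplantable tumor.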

[1] = endpoint: mean survival time, dose: 100.0 mg/kg/injection, schedule: Q04DX002 (ip), vehicle: saline
[2] = endpoint: mean survival time, dose: 100.0 mg/kg/injection, schedule: Q01DX001 (ip), vehicle: saline
[3] = endpoint: mean survival time, dose: 200.0 mg/kg/injection, schedule: Q01DX001 (ip), vehicle: saline
[4] = endpoint: mean survival time, dose: 400.0 mg/kg/injection, schedule: Q01DX001 (ip), vehicle: saline
[5] = endpoint: mean survival time, dose: 100.0 mg/kg/injection, schedule: Q01DX009 (ip), vehicle: Klucel (hydroxypropylcellulose) (HPC)
[6] = endpoint: mean survival time, dose: 200.0 mg/kg/injection, schedule: Q01DX009 (ip), vehicle: Klucel (hydroxypropylcellulose) (HPC)
[7] = endpoint: mean survival time, dose: 400.0 mg/kg/injection, schedule: Q01DX009 (ip), vehicle: Klucel (hydroxypropylcellulose) (HPC)
[8] = endpoint: mean survival time, dose: 100.0 mg/kg/injection, schedule: Q01DX001 (ip), vehicle: carboxymethylcellulose (CMC)
[9] = endpoint: mean survival time, dose: 200.0 mg/kg/injection, schedule: Q01DX001 (ip), vehicle: carboxymethylcellulose (CMC)

Measured: T/C

COC(=O)C1C=CCN1C(=O)C(Cc1ccccc1)NS(=O)(=O)c1ccc(C)cc1 (stereo not drawn) (Tos-Phe-[ΔPro]-OMe; configuration not given here)
inactive: endpoint: mean survival time, dose: 50.0 mg/kg/injection, schedule: Q01DX005 (ip), vehicle: saline 96 % of control | endpoint: mean survival time, dose: 100.0 mg/kg/injection, schedule: Q01DX005 (ip), vehicle: saline 107 % of control | endpoint: mean survival time, dose: 200.0 mg/kg/injection, schedule: Q01DX005 (ip), vehicle: saline 105 % of control

O=C1CCCCC1CC1(O)C(=O)NC2CCC(Br)CC21 (stereo not given)
inactive: endpoint: mean survival time, dose: 200.0 mg/kg/injection, schedule: Q04DX002 (ip), vehicle: Klucel (hydroxypropylcellulose) (HPC) 100 % of control | endpoint: mean survival time, dose: 400.0 mg/kg/injection, schedule: Q04DX002 (ip), vehicle: Klucel (hydroxypropylcellulose) (HPC) 92 % of control

C(=C\c1ccccc1)/CN1CCOCC1
inactive: endpoint: mean survival time, dose: 25.0 mg/kg/injection, schedule: Q04DX002 (ip), vehicle: saline 94 % of control | endpoint: mean survival time, dose: 50.0 mg/kg/injection, schedule: Q04DX002 (ip), vehicle: saline 94 % of control | [1] 105 % of control

CCCSc1ncnc2c1ncn2COC(=O)NC
inactive: [2] 97 % of control | [3] 108 % of control | [4] 108 % of control

O=CC(CCN1CCCC1)(CCN1CCCC1)c1cccc2ccccc12
inactive: endpoint: mean survival time, dose: 12.5 mg/kg/injection, schedule: Q04DX003 (ip), vehicle: saline 97 % of control | endpoint: mean survival time, dose: 25.0 mg/kg/injection, schedule: Q04DX003 (ip), vehicle: saline 108 % of control | endpoint: mean survival time, dose: 50.0 mg/kg/injection, schedule: Q04DX003 (ip), vehicle: saline 93 % of control

CCOC(=O)CC1=CCCCC1
inactive: [5] 103 % of control | endpoint: mean survival time, dose: 100.0 mg/kg/injection, schedule: Q04DX003 (ip), vehicle: Klucel (hydroxypropylcellulose) (HPC) 102 % of control | [6] 107 % of control | endpoint: mean survival time, dose: 200.0 mg/kg/injection, schedule: Q04DX003 (ip), vehicle: Klucel (hydroxypropylcellulose) (HPC) 96 % of control | [7] 98 % of control | endpoint: mean survival time, dose: 400.0 mg/kg/injection, schedule: Q04DX003 (ip), vehicle: Klucel (hydroxypropylcellulose) (HPC) 86 % of control

O=C(O)c1ccc(OCc2ccccc2)c(Br)c1
inactive: endpoint: mean survival time, dose: 100.0 mg/kg/injection, schedule: Q01DX001 (ip), vehicle: saline with Tween-80 97 % of control | endpoint: mean survival time, dose: 200.0 mg/kg/injection, schedule: Q01DX001 (ip), vehicle: saline with Tween-80 104 % of control | endpoint: mean survival time, dose: 400.0 mg/kg/injection, schedule: Q01DX001 (ip), vehicle: saline with Tween-80 98 % of control

COc1cc2ccnc(/C=N\NC(N)=S)c2cc1OC
inactive: endpoint: mean survival time, dose: 50.0 mg/kg/injection, schedule: Q01DX001 (ip), vehicle: saline 93 % of control | [2] 98 % of control | [3] 93 % of control

Nc1ccccc1C(=O)ONC(=O)c1ccccc1
inactive: endpoint: mean survival time, dose: 100.0 mg/kg/injection, schedule: Q04DX003 (ip), vehicle: carboxymethylcellulose (CMC) 97 % of control | endpoint: mean survival time, dose: 200.0 mg/kg/injection, schedule: Q04DX003 (ip), vehicle: carboxymethylcellulose (CMC) 93 % of control | endpoint: mean survival time, dose: 400.0 mg/kg/injection, schedule: Q04DX003 (ip), vehicle: carboxymethylcellulose (CMC) 92 % of control

C[CH2][Hg][S]c1nsc([S][Hg][CH2]C)n1
inactive: endpoint: mean survival time, dose: 1.56 mg/kg/injection, schedule: Q01DX009 (ip), vehicle: Klucel (hydroxypropylcellulose) (HPC) 110 % of control | endpoint: mean survival time, dose: 3.12 mg/kg/injection, schedule: Q01DX009 (ip), vehicle: Klucel (hydroxypropylcellulose) (HPC) 119 % of control | endpoint: mean survival time, dose: 6.25 mg/kg/injection, schedule: Q01DX009 (ip), vehicle: Klucel (hydroxypropylcellulose) (HPC) 121 % of control | endpoint: mean survival time, dose: 12.5 mg/kg/injection, schedule: Q01DX009 (ip), vehicle: Klucel (hydroxypropylcellulose) (HPC) 117 % of control | endpoint: mean survival time, dose: 25.0 mg/kg/injection, schedule: Q01DX009 (ip), vehicle: Klucel (hydroxypropylcellulose) (HPC) 100 % of control

Nc1[nH]c(=O)ncc1F
inactive: [8] 97 % of control | [2] 102 % of control | endpoint: mean survival time, dose: 100.0 mg/kg/injection, schedule: Q01DX009 (ip), vehicle: carboxymethylcellulose (CMC) 98 % of control | [9] 104 % of control | [3] 102 % of control | endpoint: mean survival time, dose: 200.0 mg/kg/injection, schedule: Q01DX009 (ip), vehicle: carboxymethylcellulose (CMC) 103 % of control | [4] 100 % of control | endpoint: mean survival time, dose: 400.0 mg/kg/injection, schedule: Q01DX009 (ip), vehicle: carboxymethylcellulose (CMC) 103 % of control | endpoint: mean survival time, dose: 800.0 mg/kg/injection, schedule: Q01DX001 (ip), vehicle: saline 102 % of control | endpoint: mean survival time, dose: 800.0 mg/kg/injection, schedule: Q01DX009 (ip), vehicle: carboxymethylcellulose (CMC) 104 % of control | endpoint: median survival time, dose: 31.2 mg/kg/injection, schedule: Q03HX024 (ip), vehicle: water 100 % of control | endpoint: median survival time, dose: 62.5 mg/kg/injection, schedule: Q03HX024 (ip), vehicle: water 100 % of control | endpoint: median survival time, dose: 125.0 mg/kg/injection, schedule: Q03HX024 (ip), vehicle: water 100 % of control | endpoint: median survival time, dose: 250.0 mg/kg/injection, schedule: Q03HX024 (ip), vehicle: water 105 % of control | endpoint: median survival time, dose: 250.0 mg/kg/injection, schedule: Q04DX003 (ip), vehicle: water 100 % of control | endpoint: median survival time, dose: 500.0 mg/kg/injection, schedule: Q04DX003 (ip), vehicle: water 100 % of control | endpoint: median survival time, dose: 1000.0 mg/kg/injection, schedule: Q04DX003 (ip), vehicle: water 100 % of control

CC(=O)OCC1OC2OC(C)(C)OC2C1NC(=O)N(C)C(C)=O (stereo not given)
inactive: [1] 87 % of control | endpoint: mean survival time, dose: 200.0 mg/kg/injection, schedule: Q04DX002 (ip), vehicle: saline 103 % of control | endpoint: mean survival time, dose: 400.0 mg/kg/injection, schedule: Q04DX002 (ip), vehicle: saline 90 % of control

Nc1ccc(P(=O)(O)c2ccc(N)cc2)cc1
inactive: endpoint: mean survival time, dose: 75.0 mg/kg/injection, schedule: Q01DX001 (ip), vehicle: carboxymethylcellulose (CMC) 94 % of control | endpoint: mean survival time, dose: 150.0 mg/kg/injection, schedule: Q01DX001 (ip), vehicle: carboxymethylcellulose (CMC) 97 % of control | endpoint: mean survival time, dose: 300.0 mg/kg/injection, schedule: Q01DX001 (ip), vehicle: carboxymethylcellulose (CMC) 103 % of control

CCOC(=O)c1ccc(NC(=O)Oc2cccc(NC(C)=O)c2)cc1
inactive: [5] 92 % of control | [6] 95 % of control | [7] 92 % of control

c1ccc(-c2oc(-c3ccccc3)c(-c3ccccc3)c2-c2ccccc2)cc1
inactive: endpoint: mean survival time, dose: 100.0 mg/kg/injection, schedule: Q04DX003 (ip), vehicle: saline with Tween-80 93 % of control | endpoint: mean survival time, dose: 400.0 mg/kg/injection, schedule: Q04DX003 (ip), vehicle: saline with Tween-80 93 % of control

OC(CC(O)(C(F)(F)F)C(F)(F)F)c1cccc(C(F)(F)F)c1 (stereo not given)
inactive: endpoint: mean survival time, dose: 100.0 mg/kg/injection, schedule: Q01DX009 (ip), vehicle: other 96 % of control | endpoint: mean survival time, dose: 100.0 mg/kg/injection, schedule: Q04DX003 (ip), vehicle: other 101 % of control | endpoint: mean survival time, dose: 200.0 mg/kg/injection, schedule: Q01DX009 (ip), vehicle: other 96 % of control | endpoint: mean survival time, dose: 400.0 mg/kg/injection, schedule: Q01DX009 (ip), vehicle: other 96 % of control | endpoint: mean survival time, dose: 400.0 mg/kg/injection, schedule: Q04DX003 (ip), vehicle: other 92 % of control

O=N[C@H]1C2CC([C@@H]1Cl)[C@@H]1CC=C[C@H]21 (stereo not given in full)
inactive: endpoint: mean survival time, dose: 50.0 mg/kg/injection, schedule: Q01DX001 (ip), vehicle: carboxymethylcellulose (CMC) 95 % of control | [8] 101 % of control | [9] 95 % of control
